In this experiment the target is T1, Hemoglobin (Hb; oxy-Hb, also deoxy-Hb) (Homo sapiens, UniProt P68871+P69905).
T1 construct: gene HBB

The results in this text go back to article PMC9679038, “Hemoglobin is an oxygen-dependent glutathione buffer adapting the intracellular reduced glutathione levels to oxygen availability” (Redox Biology, 2022).

pKd: −log10 of the molar value.

T1 sequence (P68871 2-147): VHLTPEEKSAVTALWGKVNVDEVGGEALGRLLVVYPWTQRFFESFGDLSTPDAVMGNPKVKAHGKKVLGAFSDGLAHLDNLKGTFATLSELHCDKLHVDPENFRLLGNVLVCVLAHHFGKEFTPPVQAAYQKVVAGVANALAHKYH
T1 sequence (P69905 2-142): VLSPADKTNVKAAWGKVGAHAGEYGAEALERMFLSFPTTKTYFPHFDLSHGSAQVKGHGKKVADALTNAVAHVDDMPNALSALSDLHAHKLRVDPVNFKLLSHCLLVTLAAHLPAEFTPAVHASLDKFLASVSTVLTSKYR

Broadly, the pKd is the negative decadic logarithm of the Kd, by convention in mol/L. High values mean a low Kd, low ones a high Kd. Compound `N[C@@H](CCC(=O)N[C@@H](CS)C(=O)NCC(=O)O)C(=O)O` [GSH, reduced glutathione] gave a pKd of 5.70.
